Where a SMILES comes first, the peptide text is derived from it. Where no end group is shown, it is not given here. [ ]: non-standard residue; d: D form.
Columns and labels:
[1] = test system: adult rat cardiac fibroblasts; experiment: Cardiac fibroblast proliferation, cell count in Neubauer chamber; assay type: cell-based; conditions: DMEM F-12 5% FBS, 24 h, trypan blue cell count
Protocol: Male Sprague-Dawley rats (250-300 g) were anesthetized with ketamine-xylazine (66 and 1.6 mg/kg i.p., respectively). Adult rat cardiac fibroblasts were isolated by retrograde aortic perfusion. Briefly, hearts were digested with collagenase type B solution for 1 h, and cells were centrifuged at 500 rpm for 2 min. The supernatant, mainly adult rat cardiac fibroblasts, was centrifuged at 1000 rpm for 10 min, resuspended in Dulbecco's Modified Eagle Medium: Nutrient Mixture F-12 (DMEM F-12) plus 15% fetal bovine serum (FBS) and then seeded in nontreated culture dishes during 3 h. Cells were washed with phosphate buffered saline to eliminate debris and nonadherent cells. Adult rat cardiac fibroblasts were used at passage one and seeded on 60 mm cell culture dishes in DMEM F-12 plus 10% FBS and incubated at […] for 3 h. To synchronize cells, they were washed and incubated in DMEM F-12 (without serum, 0% FBS) for 24 h before experimentation. Cell proliferation was determined in cardiac fibroblasts incubated for 24 h with and without retro-inverse angiotensin-(1-9) in DMEM F-12 5% FBS. Cells were trypsinized and cell number was determined using trypan blue method in a Neubauer chamber.

[2] = Stability in human serum determined by HPLC; assay type: in vitro ADME; conditions: 37° C.
Protocol: The retro-inverse peptides were dissolved in PBS to obtain a final concentration of 1 mM. From this stock, an aliquot of 50 μL was taken and diluted to 450 μL of human serum (Sigma Aldrich from human male AB plasma, USA origin, sterile-filtered) at 37° C. under agitation, to obtain an initial concentration of […] and incubated for 48 h. Aliquots of 50 μL were extracted at 0, 5, 10 min and 1, 3, 6, 24 and 48 h and added to 200 μL of methanol at 4° C. for 30 min to precipitate serum proteins. The samples were then centrifuged at 13,000 g in Hermle Cooling Centrifuge Z 326 K 311.00 V01 at 4° C. for 30 min. The supernatants (approximately 200 μL) were obtained, placed in vials, and then analyzed by HPLC. All analyzes were performed on the Perkin Elmer auto sampler flexo HPLC, using a reverse phase 4.6×100 mm column with a particle size of […] (Waters XBridge Peptide BEH C18 Column). Mobile phase A was 100% acetonitrile and phase B was TFA 0.0004% in Milli-Q water. The initial composition of eluent was 5% A and 95% B for 1 min and then a linear gradient to reach 100% A in 19 min and then return to the initial composition in 4 min, with a total run time of 25 min. The eluent flow was 0.9 mL/min and the temperature of the column was adjusted to 26° C. L measurement was performed at a UV signal of 220 nm wavelength. Where 50 μL was injected per sample. Peptides were identified based on their retention time in the respective chromatogram obtained in the Chromera-HPLC flexar program.

[3] = test system: cardiac myocytes isolated from neonatal Sprague-Dawley rat ventricles; experiment: Norepinephrine-induced cardiomyocyte hypertrophy, western blot of β-MHC and ANP; assay type: cell-based; conditions: 1, 10 or 100 μM peptide, 10 μM norepinephrine
Protocol: Cardiac myocytes were isolated from neonatal Sprague-Dawley rat ventricles. Cardiac myocytes were plated at 70% final density in gelatin-coated wells (12-well plates) or in 60-mm Petri dishes and maintained at 37° C. in a humidified atmosphere of 5% CO2/95% air for 24 h in Dulbecco's Modified Eagle's medium [(DMEM)/M199](4:1) containing 10% fetal bovine serum and 5% fetal calf serum. Serum was withdrawn 24 h before preincubation with 1, 10 or 100 μM retro-inverse angiotensin-(1-9) for 1 h; then, 10 μM norepinephrine (Sigma, St Louis, Missouri, USA) were added and the cultures were incubated for 24 h. Then cells were washed with PBS at 4° C. and then cells were lysed with 50 μL of RIPA lysis buffer (Tris-HCl 10 mM pH 7.4, EDTA 5 mM, NaCl 50 mM, deoxycholic acid 1%, Triton X-100 1% v/v) supplemented with phosphatase and protease inhibitors (Roche). After centrifugation at 12,000 r.p.m. for 15 min at 4° C., the supernatat was recovered; total protein content was determined by using Bradford (BioRad protein assay, BioRad, Hercules, CA, USA). Proteins were denatured in SDS-PAGE 4× buffer and resolved in 12% PAGE-SDS. After electrotransference, beta-myosin heavy chain (β-MHC) and atrial natriuretic peptide (ANP) were used as hypertrophic markers. β-tubulin was used as loading control. As expected, norepinephrine 10 μM for […], a cardiomyocyte hypertrophy inducer, triggered β-MHC and ANP increase (FIG. 3).

## O=c1[nH]c(=O)n([C@H]2C[C@H](O)[C@@H](CO)O2)cc1Br [bromodeoxyuridine, reference compound]
[1]
  fibroblast proliferation: comparable to bromodeoxyuridine

## CC[C@@H](C)[C@@H](NC(=O)[C@@H](Cc1c[nH]cn1)NC(=O)[C@H]1CCCN1C(=O)[C@@H](Cc1ccccc1)NC(=O)[C@H](N)Cc1c[nH]cn1)C(=O)N[C@H](Cc1ccc(O)cc1)C(=O)N[C@@H](C(=O)N[C@H](CCCNC(=N)N)C(=O)N[C@H](CC(=O)O)C(N)=O)C(C)C [retro-inverse angiotensin-(1-9) amide, ^DH^DF^DP^DH^DI^DY^DV^DR^DD-CONH2] (H-[dH][dF][dP][dH][dI][dY][dV][dR][dD]-NH2)
[2]; 24 h incubation
  degradation after incubation with human serum: no significant degradation
[3]
  increase of ANP induced by norepinephrine: blocked

## DRVYIHPFH [angiotensin-(1-9), Asp-Arg-Val-Tyr-Ile-His-Pro-Phe-His]
[2]; 3 h incubation
  degradation after incubation with human serum: completely degraded

— US20250206779A1, “ANGIOTENSIN-(1-9) ANALOGUE BASED ON D AMINO ACIDS, PHARMACEUTICAL COMPOSITIONS AND USES THEREOF” (UNIVERSIDAD DE CHILE, priority 2021, published 2025)
